Paper PMC11257323, “Thermostabilization of a fungal laccase by entrapment in enzymatically synthesized levan nanoparticles” (PLOS ONE, 2024)

Molecular target: T1, LevS△N70Tn38 (Leuconostoc mesenteroides, UniProt Q1L7R6)
T1 construct: truncated levansucrase LevS△N70Tn38 (name implies N-terminal 70-residue deletion); pET-22b, expressed in E. coli BL21, DEAE-purified
Test: DNS reducing-sugar assay
Format: biochemical
Settings: 292 mM sucrose; 50 mM acetate pH 6.0; 1 mM CaCl2; 30°C

T1 sequence (Q1L7R6 entry or part of it): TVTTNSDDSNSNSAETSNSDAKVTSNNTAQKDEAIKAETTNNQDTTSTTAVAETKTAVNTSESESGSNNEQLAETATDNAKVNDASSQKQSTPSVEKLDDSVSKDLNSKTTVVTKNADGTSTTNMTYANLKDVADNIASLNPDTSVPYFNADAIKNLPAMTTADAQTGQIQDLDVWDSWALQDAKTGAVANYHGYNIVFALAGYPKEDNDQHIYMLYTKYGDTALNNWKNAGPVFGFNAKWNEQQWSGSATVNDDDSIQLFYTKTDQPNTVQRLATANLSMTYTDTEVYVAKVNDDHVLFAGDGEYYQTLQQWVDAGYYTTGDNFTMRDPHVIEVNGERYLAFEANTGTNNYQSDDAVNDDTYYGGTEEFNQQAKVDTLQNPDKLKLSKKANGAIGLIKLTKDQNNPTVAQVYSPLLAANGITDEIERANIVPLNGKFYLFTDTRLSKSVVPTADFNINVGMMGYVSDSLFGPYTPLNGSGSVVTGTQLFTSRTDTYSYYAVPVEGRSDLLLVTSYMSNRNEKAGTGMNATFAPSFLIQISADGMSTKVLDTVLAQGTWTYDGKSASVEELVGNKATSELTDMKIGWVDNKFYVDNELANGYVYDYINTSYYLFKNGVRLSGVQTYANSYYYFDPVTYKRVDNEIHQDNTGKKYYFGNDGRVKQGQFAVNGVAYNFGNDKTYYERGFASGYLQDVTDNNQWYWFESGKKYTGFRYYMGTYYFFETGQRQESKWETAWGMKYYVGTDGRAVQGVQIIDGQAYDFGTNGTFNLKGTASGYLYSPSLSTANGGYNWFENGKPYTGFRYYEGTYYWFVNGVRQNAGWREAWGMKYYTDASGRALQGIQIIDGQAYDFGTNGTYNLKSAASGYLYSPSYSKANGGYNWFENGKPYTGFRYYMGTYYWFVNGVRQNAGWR

**Q.** Which DNS reducing-sugar assay does the source give for OC[C@H]1O[C@@](CO)(O[C@H]2O[C@H](CO)[C@@H](O)[C@H](O)[C@H]2O)[C@@H](O)[C@@H]1O [sucrose] here?
**A.** LevS△N70Tn38 activity was determined by quantification of released reducing sugars from sucrose
